This is an account of results in paper PMC3075274, “Expression and Activity of a Novel Cathelicidin from Domestic Cats” (PLoS ONE, 2011).

For assay [1], the system named is Salmonella enterica serovar Typhimurium (IR715). Here is the method:
(§1) A radial diffusion antimicrobial assay was used to assess the antimicrobial activity of feCath and LL-37 [24]. Briefly, overnight bacterial cultures were seeded into fresh tryptic soy broth (TSB). Bacteria was grown to an optical density of 0.2 at A600, pelleted and resuspended in an equal volume of 10 mM sodium phosphate buffer, pH 7.4. Resuspended bacteria were added to underlay minimal-media agarose, and peptide, at various concentrations (1000 ng/µl, 333 ng/µl, 111 ng/µl, 37 ng/µl, 12 ng/µl and 4 ng/µl, dissolved in 0.05% acetic acid), was instilled into adjacent punch-wells. Buffer alone (0.05% acetic acid) was used as the negative control. After 3 hours of incubation at 37°C, overlay nutrient rich agarose was added and allowed to incubate overnight. The following day, zones of clearance were measured. To quantitate zones of clearance, the diameter of the agarose punch (3 mm) was subtracted from the diameter of antimicrobial clearance (in mm), and the resulting number was multiplied by 10.

A further assay deals with Listeria monocytogenes. Particulars: radial diffusion assay, 10 mM sodium phosphate pH 7.4, peptide 4-1000 ng/µl in 0.05% acetic acid, 3 h 37°C then overlay overnight. Here is the method:
as §1

The test system of assay [2] is Staphylococcus pseudintermedius (clinical isolate). The note with it: radial diffusion assay, 10 mM sodium phosphate pH 7.4, peptide 4-1000 ng/µl in 0.05% acetic acid, 3 h 37°C then overlay overnight. On the procedure: as §1
A further assay has as its system E. coli D31. The note with it: radial diffusion assay, 10 mM sodium phosphate pH 7.4, peptide 4-1000 ng/µl in 0.05% acetic acid, 3 h 37°C then overlay overnight. On the procedure: as §1
Assay [3] concerns HaeIII digested Phi-X174 phage DNA. Description: DNA binding assay (gel electrophoresis, retarded migration). The note with it: Phi-X174 HaeIII DNA 20 ng/µl; peptide 10, 30, 100 ng/µl; 5 min room temperature, 0.05% acetic acid; agarose gel, ethidium bromide. On the procedure:
Hae-III digested phage DNA Phi-X174 (20 ng/µl) (Roche) was incubated with varying amounts of LL-37, feCath and magainin (10 ng/µl, 30 ng/µl and 100 ng/µl) for 5 min at room temperature. The entire reaction was resolved using agarose gel electrophoresis (1% w/v) and stained with ethidium bromide.
Figure 6 Gel electrophoresis of DNA binding assay. A DNA ladder (HaeIII digested Phi-X174, 200 ng) was incubated with increasing concentrations of peptide (100 ng, 300 ng, 1000 ng) for 5 minutes in 0.05% acetic acid at room temperature. The reaction mixture was resolved using agarose gel electrophoresis ([…]). Arrow indicates retarded migration of Phi-X174 DNA into the gel.

In brackets after ≈: the same amount, converted by molar mass. Read-outs that look alike come from different tables or passages of the source. Where no end group is shown, it is not given here.

The term MIC denotes the smallest concentration in the dilution series that meets the test's criterion for growth inhibition. A low value points to greater potency. Turning to `CC[C@H](C)[C@H](NC(=O)[C@H](CCCCN)NC(=O)[C@H](CCC(=O)O)NC(=O)[C@H](CCCCN)NC(=O)[C@H](CO)NC(=O)[C@H](CCCCN)NC(=O)[C@H](CCCNC(=N)N)NC(=O)[C@H](Cc1ccccc1)NC(=O)[C@H](Cc1ccccc1)NC(=O)[C@H](CC(=O)O)NC(=O)CNC(=O)[C@H](CC(C)C)NC(=O)[C@@H](N)CC(C)C)C(=O)NCC(=O)N[C@@H](CCCCN)C(=O)N[C@@H](CCC(=O)O)C(=O)N[C@@H](Cc1ccccc1)C(=O)N[C@@H](CCCCN)C(=O)N[C@@H](CCCNC(=N)N)C(=O)N[C@H](C(=O)N[C@H](C(=O)N[C@@H](CCC(N)=O)C(=O)N[C@@H](CCCNC(=N)N)C(=O)N[C@H](C(=O)N[C@@H](CCCCN)C(=O)N[C@@H](CC(=O)O)C(=O)N[C@@H](Cc1ccccc1)C(=O)N[C@@H](CC(C)C)C(=O)N[C@@H](CCCNC(=N)N)C(=O)N[C@@H](CC(N)=O)C(=O)N[C@@H](CC(C)C)C(=O)N[C@H](C(=O)N1CCC[C@H]1C(=O)N[C@@H](CCCNC(=N)N)C(=O)N[C@H](C(=O)N[C@@H](CCC(=O)O)C(=O)N[C@@H](CO)C(=O)O)[C@@H](C)O)C(C)C)[C@@H](C)CC)C(C)C)[C@@H](C)CC` [LL-37, reference compound], the minimum inhibitory concentration (MIC) is 12 µg/mL (≈ 2.67 µM) in assay [1] (Salmonella enterica serovar Typhimurium (IR715), radial diffusion assay, 10 mM sodium phosphate pH 7.4, peptide 4-1000 ng/µl in 0.05% acetic acid, 3 h 37°C then overlay overnight); 7 µg/mL (≈ 1.56 µM) against Listeria monocytogenes; 15 µg/mL (≈ 3.34 µM) in assay [2]; 5 µg/mL (≈ 1.11 µM) in the assay with E. coli D31.
Take “QLGELIQQGGQKIVEKIQKIGQRIRDFFSNLRPRQEA [feCath]”: the MIC in assay [1] (serovar Typhimurium (IR715, 3 h, pH 7.4)) was 29 µg/mL; against E. coli D31, 21 µg/mL.
As for Magainin, the “DNA binding (retardation of DNA migration into the gel)” value in assay [3] is on record as “lacks this ability to bind DNA”.
